Measurements reported in patent US7368287B2, “Use of L-α-lysophosphatidylcholine to obtain the differentiation of monocytes into mature dendritic cells in vitro” (Biomerieux, priority 2002, dated 2008).

Tests used:
BALB/c mice [1] = test: Proliferation of HEL-specific T cells of popliteal lymph nodes after immunization (thymidine incorporation); type: in vivo, mouse
Protocol: LPC stimulates the T response specific for a co-injected soluble antigen. LPC dissolved in PBS (250 or 500 nmol in 50 μl) is mixed with hen egg lysozyme (HEL, 50 μg) and this mixture is injected into the plantar foot pad of BALB/c mice. After 7 days, the popliteal lymph nodes are removed and their cells are restimulated in triplicate in vitro, in a culture medium containing 30 μM of HEL antigen, or in the absence of HEL. After 3 days, the T lymphocyte proliferation is measured by incorporation of triturated thymidine for 16 h.
INTRALIPID® blocks the inflammation and the immune response induced by LPC, in vivo. In this example, 3 batches of BALB/c mice are immunized against the hen egg lysozyme (HEL) antigen by injection of 50 μl of solution into the plantar foot pad. The “HEL” control batch receives 50 μg of HEL, the “HEL+Intralipid” batch receives a mixture of INTRALIPID® (45 μl) and of 50 μg of HEL (5 μl of a solution at 10 mg/ml). The “HEL+LPC” batch receives 50 μg of HEL with 350 nmol of LPC dissolved in PBS. The “HEL+LPC+Intralipid” batch receives 50 μg of HEL mixed with 350 nmol of LPC dissolved in 45 μl of INTRALIPID®. After 24 hours, the thickness of the foot pads is measured using a micrometer, and compared with the measurement taken before injection. The difference in thickness is proportional to the intensity of the inflammation.
Seven days after the injection, the popliteal lymph nodes are removed and their cells are restimulated in vitro in triplicate, in a culture medium containing 10 μM of HEL or in the absence of HEL. After 3 days, the proliferation of HEL-specific T lymphocytes is measured by incorporation of triturated thymidine for 16 h.

PPARγ = molecular target: T1, PPARγ (Homo sapiens, UniProt P37231); test: PPAR binding activity by gel shift on nuclear proteins of treated monocytes; type: cell-based; conditions: Table 7; ciglitizone 50 μM 15 minutes before LPC 40 μM for 2 hours; control = 100%
T1 construct: After having harvested the cells, the nuclear proteins were extracted with the Nuclear extract Kit (Sigma); endogenous in cells; host or cells: monocytes undergoing differentiation into dendritic cells (nuclear extract)
T1 sequence (P37231 1-505): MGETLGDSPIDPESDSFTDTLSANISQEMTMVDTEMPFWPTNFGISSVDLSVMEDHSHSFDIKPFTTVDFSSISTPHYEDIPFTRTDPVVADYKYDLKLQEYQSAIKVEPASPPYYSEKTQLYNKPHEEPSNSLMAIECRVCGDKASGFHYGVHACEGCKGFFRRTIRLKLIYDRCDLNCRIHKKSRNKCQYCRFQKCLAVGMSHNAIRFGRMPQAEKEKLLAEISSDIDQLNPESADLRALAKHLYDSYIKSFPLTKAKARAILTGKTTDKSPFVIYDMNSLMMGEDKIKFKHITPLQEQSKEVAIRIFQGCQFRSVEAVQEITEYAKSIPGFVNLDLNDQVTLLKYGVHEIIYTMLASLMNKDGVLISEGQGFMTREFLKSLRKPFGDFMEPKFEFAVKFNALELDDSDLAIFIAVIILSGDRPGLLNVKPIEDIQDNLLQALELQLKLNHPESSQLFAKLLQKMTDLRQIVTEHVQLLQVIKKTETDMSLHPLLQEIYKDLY
Protocol: (§1) Next, the inventors investigated the transcription factors involved in the maturation process induced by LPC. In order to determine whether PPARs are involved in the LPC-induced maturation, the ability of the two transcription factors PPARγ and PPARδ to bind was analyzed using the gel shift technique. 3 isotypes of PPAR nuclear receptors (peroxisome proliferator-activated receptor) exist: α, γ and δ. PPARγs are the targets for molecules of the thiazolidinedione class, such as ciglitizone, used in the treatment of type II diabetes. PPARδs have a broader expression and can be repressors of PPARγs. The monocytes undergoing differentiation were incubated for two hours with a solution of LPC (40 μM) (“LPC” cells). “Control” cells are also obtained in the absence of LPC in the culture medium. After having harvested the cells, the nuclear proteins were extracted with the Nuclear extract Kit (Sigma). The nuclear proteins were then brought into contact with a ratioactively labeled probe containing a response element recognized by PPARs. […] The PPAR binding activity was determined by measuring the intensity of these bands. These activities are expressed as a percentage with respect to the “control” cells. […]
(§2) The activity of the PPARγ and PPARδ transcription factors was measured in these cells by the gel shift technique, as described above.
(§3) INTRALIPID® regulates PPARs in vitro. […] The cells were harvested after 1 h, 2 h or 8 h of incubation with INTRALIPID®, the nuclear proteins were extracted and the activity of PPARγ and PPARδ was determined as described in example 6.
(§4) Secondly, a solution of INTRALIPID® (50 μg/ml of phospholipids) was added to the culture medium on the 5th day of monocyte differentiation, 15 minutes before the addition of a solution of LPC (40 μM) (“LPC+Intralipid” cells). […] The cells were harvested after 2 h of incubation, the nuclear proteins were extracted and the activity of PPARγ and PPARδ was determined as described in example 6.

PPARδ = test: as above; type: cell-based, human; conditions: Table 7; ciglitizone 50 μM 15 minutes before LPC 40 μM for 2 hours; control = 100%
Protocol: as §1, §2, §3, §4

BALB/c mice [2] = test: Migration of skin dendritic cells to draining lymph nodes (FITC uptake); type: in vivo, mouse; conditions: auricular and maxillary lymph nodes after 24 h; LPC 0.1 M on ear skin 10 minutes before FITC 1.5%
Protocol: This fluorescent label is taken up by the dendritic cells of the skin. After 24 h, the auricular and maxillary lymph nodes are removed and the cells are placed in suspension. The cell suspension is enriched in dendritic cells by metrizamide (Sigma) gradient centrifugation. The cells are labeled with an antibody (Pharmingen) which recognizes Major Histocompatibility Complex (MHC) […] molecules and analysis by flow cytometry makes it possible to quantify the percentage of large cells (dendritic cells) expressing the MHC class II molecules and containing FITC. These cells are presenting cells which have taken up the FITC in the periphery and have migrated to the lymph nodes.

PAF receptor = test: CD86 expression in presence of PAF or of the PAF antagonist BN52021; type: cell-based, human; conditions: differentiation induced by oxidized LDLs; BN52021 added on 5th day
Protocol: The phenotype of the “control” and “LPC” cells is analyzed by flow cytometry on a FACSCalibur (Becton Dickinson, Francklin Lakes, N.J., USA) using FITC (fluorosceine isothiocyanate)-conjugated anti-CD14, anti-HLA-DR and anti-CD80 and PE (phycoerythrin)-conjugated anti-CD1a, anti-CD83, anti-CD86 and anti-CD40 (Beckman Coulter). According to the state of the art, monocytes preferentially have a CD14+ CD1a− phenotype, immature dendritic cells preferentially have a CD14− CD1a+CD86− phenotype, and mature dendritic cells preferentially have a CD14− CD1a intermediate—CD86+ phenotype.
Thus, a solution of PAF (Sigma, 5 μM) was added to the culture medium on the 5th day of monocyte differentiation. The expression of CD86 by the “control” cells and by the “LPC” cells, obtained in the presence or in the absence of PAF, was analyzed according to the protocol described in example 2, and the results are given in table 9.
Thus, a solution of the PAF antagonist BN52021 (Biomol, Plymouth Meeting, USA, 100 μM) was added to the culture medium on the 5th day of monocyte differentiation. The expression of CD86 by the “control” and “LPC” cells, obtained in the presence or in the absence of BN52021, was analyzed according to the protocol described in example 2, and the results are given in table 10.

[3] = Table 18, HEL 50 μg, LPC 350 nmol, Intralipid 45 μl, seven days after injection

“HEL: hen egg lysozyme, soluble antigen; antigen-only group” was tested, and the “Restimulation with HEL (30 μM)” value (BALB/c mice [1]; Table 13, immunization with HEL 50 μg alone) was 5370 ± 1983 CPM, the “Proliferation in the absence of HEL” value (BALB/c mice [1]; Table 13, immunization with HEL 50 μg alone, day 7 lymph node cells) was 1315 ± 275 CPM and the “Proliferation in the absence of HEL” value (BALB/c mice [1]; [3]) was 370 ± 212 cpm. For the same molecule, the “Restimulation with HEL (10 μM)” value (BALB/c mice [1]; [3]) was 738 ± 408 cpm.

For CC1(COc2ccc(CC3SC(=O)NC3=O)cc2)CCCCC1 (centres unmarked) [Ciglitizone, reference compound], the PPARγ binding activity (PPARγ) was 237% and the PPARδ binding activity (PPARδ) was 106%.

O=C1OC2(c3ccc(O)cc3Oc3cc(O)ccc32)c2ccc(N=C=S)cc21 [FITC] was tested, and the “FITC+ dendritic cells” value (BALB/c mice [2]) was 7.1 ± 1.7%.

With CC1C(=O)OC2C(O)C34C5CC(C(C)(C)C)C36C(OC(=O)C6O)OC4(C(=O)O5)C12O (centres unmarked) [BN52021, reference compound] the “Inhibition of the action of the oxidized LDLs” value (PAF receptor) was 100%.
